Laboratory results reported in patent publication US6090958A, “Compounds and compositions for delivering active agents” (Emisphere Technologies, Inc., priority 1997, dated 2000).

Details: rat, in vivo, 50 mg/kg
Method: An intracolonic dosing composition containing 50 mg/kg of carrier 9 and 250 μg/kg of interferon in 50% propylene glycol was prepared. Rats were administered the dosing composition by intracolonic instillation.
Rats were administered, orally and by intracolonic instillation, dosing solutions of 1 mg/kg of interferon and no carrier.

O=C(O)CCCc1ccc(NC(=O)COc2ccccc2)cc1 [Compound 9]
Mean peak serum interferon concentration: 2611±695
